According to PubChem BioAssay AID1963840 (Molecular Pharmacology Branch, DTP, NCI, 2024):

Tested on: 695427-040-R-J1-PDC complex spheroid viability
Assay: Anticancer human tumor 695427-040-R-J1-PDC patient-derived colon adenocarcinoma cell line growth inhibition [POLQ]
Conditions: for IC50: curve of first compound; for viability, T/C: stronger effect = lower value
Method: Multicellular complex tumor spheroid response to Polymerase (POL) inhibitors (novobiocin, ART-558, RP6685) in combination with a variety of drugs and investigational agents in selected tumor cell lines
The POL inhibitors (novobiocin, ART-558, and RP6685) were evaluated both individually and in combination with standard of care and investigational anticancer small molecules within a complex spheroid model of solid tumors. . Complex spheroids include a stromal component modeled by human endothelial cells (HUVEC) and fibroblasts modeled by human mesenchymal stem cells (MSCs). The concentration ranges selected for each drug and investigational agent were based upon clinically achievable concentrations if the clinical Cmax of the agent was known.
Compounds. The drugs and investigational agents: novobiocin (NSC847541), ART-558 (NSC835418), RP-6685 (NSC848927), peposertib (NSC802822), ceralasertib (NSC780249), elimusertib (NSC800525), camonsertib (NSC841442), AZD-1390 (NSC803789), olaparib (NSC753686), talazoparib (NSC767125), rucaparib (NSC756644), sotorasib (NSC818433), MRTX-1133 (NSC836407), SN-38 (NSC673596), topotecan (NSC609699), epotoside (NSC141540), doxorubicin (NSC123127), gemcitabine (NSC613327), 5-fluorouracil (NSC19893), paclitaxel (NSC125973), vemurafenib (NSC761431), MSA-2 (NSC828583), SN-011 (NSC837082), adavosertib (NSC754352), prexasertib (NSC758257), carboplatin (NSC241240) and oxaliplatin (NSC266046), were obtained from the National Cancer Institute (NCI) Developmental Therapeutics Program Chemical Repository (21). The FDA-approved anticancer drug set is available from the Developmental Therapeutics Program at https://dtp.cancer.gov/organization/dscb/obtaining/. […] The stock solutions were prepared in dimethyl sulfoxide (DMSO, Sigma-Aldrich, St. Louis, MO, cat. D2650), except for the platinum compounds which were prepared in saline (Quality Biological, Gaithersburg, MD, cat. 114-055-101), at 800-fold the tested concentration and stored at -70 degrees C prior to their use. All drugs and investigational agents were tested over a range starting from a high concentration at or near the clinical Cmax and decreasing in half-log increments. If the clinical Cmax for an agent had not been determined, the highest concentration tested was 10 microM, except for SN-38, which was tested at a high concentration of 1 microM.
Cell Culture. All cells were maintained in an incubator at 37 degrees C and 5% CO2 with 95% humidity. The PDC lines were cultured according to standard operating procedures established by the NCI PDMR (https://pdmr.cancer.gov). Table 3 of the manuscript, lists the cell lines along with the number of the three cell types plated to form the mct-spheroids and media for tumor cell growth. After thawing, all PDC lines, except 997537-175-T-J1-PDC and 415267-285-R-J2-PDC, were cultured in Matrigel-coated flasks prepared with a working solution of 1X Ham's F-12 nutrient mix, without supplementation (Thermo Fisher Scientific, cat. 11765054), 100 U/mL penicillin-streptomycin (Thermo Fisher Scientific, cat. 15140122), and 2.5% Matrigel (Corning Inc., Corning, NY, cat. 354248) for the first three passages. The two PDC lines 997537-175-T-J1-PDC and 415267-285-R-J2-PDC were cultured on uncoated flasks. The 857933-349-R-J2-PDC line was cultured in 6C/Colon 1B media containing advanced DMEM/F-12 (Thermo Fisher Scientific, cat. 12634028), 10 mM HEPES (Thermo Fisher Scientific, cat. 15630080), 1X GlutaMAX supplement (Thermo Fisher Scientific, cat. 35050061), 0.1 mg/mL primocin (InvivoGen, San Diego, CA, cat. ant-pm-2), 10% defined fetal bovine serum, heat inactivated (HyClone Laboratories Inc., Logan, UT, cat. SH30070.03HI), 50% L-WRN conditioned media (ATCC, cat. CRL-3276), 1.25 mM N-Acetyl-L-cysteine (Sigma-Aldrich, cat. A9165), 10 mM nicotinamide (Sigma-Aldrich, cat. N0636), 1X B-27 supplement (Thermo Fisher Scientific, cat. 17504044), 1X N-2 supplement (Thermo Fisher Scientific, cat. […]

[1] = second compound 0.0316 µM, first compound 0.0316 µM
[2] = second compound 0.0316 µM, first compound 0.1 µM
[3] = second compound 0.0316 µM, first compound 0.316 µM
[4] = second compound 0.0316 µM, first compound 1 µM
[5] = second compound 0.0316 µM, first compound 3.16 µM
[6] = second compound 0.0316 µM, first compound 10 µM
[7] = second compound 0.1 µM, first compound 0.0316 µM
[8] = second compound 0.1 µM, first compound 0.1 µM
[9] = second compound 0.1 µM, first compound 0.316 µM
[10] = second compound 0.1 µM, first compound 1 µM
[11] = second compound 0.1 µM, first compound 3.16 µM
[12] = second compound 0.1 µM, first compound 10 µM
[13] = second compound 0.316 µM, first compound 0.0316 µM
[14] = second compound 0.316 µM, first compound 0.1 µM
[15] = second compound 0.316 µM, first compound 0.316 µM
[16] = second compound 0.316 µM, first compound 1 µM
[17] = second compound 0.316 µM, first compound 3.16 µM
[18] = second compound 0.316 µM, first compound 10 µM
[19] = second compound 1 µM, first compound 0.0316 µM
[20] = second compound 1 µM, first compound 0.1 µM
[21] = second compound 1 µM, first compound 0.316 µM
[22] = second compound 1 µM, first compound 1 µM
[23] = second compound 1 µM, first compound 3.16 µM
[24] = second compound 1 µM, first compound 10 µM
[25] = second compound 3.16 µM, first compound 0.0316 µM
[26] = second compound 3.16 µM, first compound 0.1 µM
[27] = second compound 3.16 µM, first compound 0.316 µM
[28] = second compound 3.16 µM, first compound 1 µM
[29] = second compound 3.16 µM, first compound 3.16 µM
[30] = second compound 3.16 µM, first compound 10 µM
[31] = second compound 10 µM, first compound 0.0316 µM
[32] = second compound 10 µM, first compound 0.1 µM
[33] = second compound 10 µM, first compound 0.316 µM
[34] = second compound 10 µM, first compound 1 µM
[35] = second compound 10 µM, first compound 3.16 µM
[36] = second compound 10 µM, first compound 10 µM
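Further: spheroids exposed to compounds for seven days.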
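Wherever viability, T/C is given: 100% = DMSO vehicle control viability.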

Compound: O=C(c1cc(Cc2n[nH]c(=O)c3ccccc23)ccc1F)N1CCN(C(=O)C2CC2)CC1 + Cc1cccc(N(C)C(=O)C2C(O)CCN2c2nc(C)cc(C(F)(F)F)c2C#N)c1
- IC50 (second compound 0.0316 µM): > 10 µM
- IC50 (second compound 0.1 µM): > 10 µM
- IC50 (second compound 0.316 µM): > 10 µM
- IC50 (second compound 1 µM): > 10 µM
- IC50 (second compound 3.16 µM): > 10 µM
- IC50 (second compound 10 µM): > 10 µM
- viability, T/C [1]: 107%
- viability, T/C [2]: 98.3%
- viability, T/C [3]: 101%
- viability, T/C [4]: 103%
- viability, T/C [5]: 104%
- viability, T/C [6]: 93.9%
- viability, T/C [7]: 111%
- viability, T/C [8]: 101%
- viability, T/C [9]: 97.9%
- viability, T/C [10]: 100%
- viability, T/C [11]: 113%
- viability, T/C [12]: 95.3%
- viability, T/C [13]: 109%
- viability, T/C [14]: 101%
- viability, T/C [15]: 99%
- viability, T/C [16]: 93.1%
- viability, T/C [17]: 98.4%
- viability, T/C [18]: 96.9%
- viability, T/C [19]: 98.5%
- viability, T/C [20]: 94.5%
- viability, T/C [21]: 97.6%
- viability, T/C [22]: 92.8%
- viability, T/C [23]: 101%
- viability, T/C [24]: 91.2%
- viability, T/C [25]: 103%
- viability, T/C [26]: 94%
- viability, T/C [27]: 102%
- viability, T/C [28]: 91.4%
- viability, T/C [29]: 103%
- viability, T/C [30]: 103%
- viability, T/C [31]: 89.4%
- viability, T/C [32]: 88%
- viability, T/C [33]: 97.9%
- viability, T/C [34]: 90.4%
- viability, T/C [35]: 92.3%
- viability, T/C [36]: 78.9%

Compound: CC(=O)O[C@H]1C(=O)[C@@]2(C)[C@H]([C@H](OC(=O)c3ccccc3)[C@]3(O)C[C@H](OC(=O)[C@H](O)[C@@H](NC(=O)c4ccccc4)c4ccccc4)C(C)=C1C3(C)C)[C@]1(OC(C)=O)CO[C@@H]1C[C@@H]2O + Nc1ccc(C#CCN(C(=O)Cc2ncc(C(F)(F)F)cc2C(F)(F)F)c2ccc(F)cc2)nn1
- IC50 (second compound 0.0316 µM): > 3 µM
- IC50 (second compound 0.1 µM): > 3 µM
- IC50 (second compound 0.316 µM): > 3 µM
- IC50 (second compound 1 µM): > 3 µM
- IC50 (second compound 3.16 µM): > 3 µM
- IC50 (second compound 10 µM): > 3 µM
- viability, T/C (second compound 0.0316 µM, first compound 0.00949 µM): 98.2%
- viability, T/C (second compound 0.0316 µM, first compound 0.03 µM): 93.4%
- viability, T/C (second compound 0.0316 µM, first compound 0.0949 µM): 93.3%
- viability, T/C (second compound 0.0316 µM, first compound 0.3 µM): 97.1%
- viability, T/C (second compound 0.0316 µM, first compound 0.949 µM): 97.9%
- viability, T/C (second compound 0.0316 µM, first compound 3 µM): 81.2%
- viability, T/C (second compound 0.1 µM, first compound 0.00949 µM): 99.9%
- viability, T/C (second compound 0.1 µM, first compound 0.03 µM): 99.6%
- viability, T/C (second compound 0.1 µM, first compound 0.0949 µM): 91.8%
- viability, T/C (second compound 0.1 µM, first compound 0.3 µM): 91.5%
- viability, T/C (second compound 0.1 µM, first compound 0.949 µM): 89.5%
- viability, T/C (second compound 0.1 µM, first compound 3 µM): 79.7%
- viability, T/C (second compound 0.316 µM, first compound 0.00949 µM): 108%
- viability, T/C (second compound 0.316 µM, first compound 0.03 µM): 101%
- viability, T/C (second compound 0.316 µM, first compound 0.0949 µM): 88.4%
- viability, T/C (second compound 0.316 µM, first compound 0.3 µM): 91.6%
- viability, T/C (second compound 0.316 µM, first compound 0.949 µM): 88.9%
- viability, T/C (second compound 0.316 µM, first compound 3 µM): 90.3%
- viability, T/C (second compound 1 µM, first compound 0.00949 µM): 102%
- viability, T/C (second compound 1 µM, first compound 0.03 µM): 93.3%
- viability, T/C (second compound 1 µM, first compound 0.0949 µM): 102%
- viability, T/C (second compound 1 µM, first compound 0.3 µM): 99.3%
- viability, T/C (second compound 1 µM, first compound 0.949 µM): 90.9%
- viability, T/C (second compound 1 µM, first compound 3 µM): 78.8%
- viability, T/C (second compound 3.16 µM, first compound 0.00949 µM): 106%
- viability, T/C (second compound 3.16 µM, first compound 0.03 µM): 84.7%
- viability, T/C (second compound 3.16 µM, first compound 0.0949 µM): 95.1%
- viability, T/C (second compound 3.16 µM, first compound 0.3 µM): 90.5%
- viability, T/C (second compound 3.16 µM, first compound 0.949 µM): 88.2%
- viability, T/C (second compound 3.16 µM, first compound 3 µM): 86.8%
- viability, T/C (second compound 10 µM, first compound 0.00949 µM): 92.7%
- viability, T/C (second compound 10 µM, first compound 0.03 µM): 82.7%
- viability, T/C (second compound 10 µM, first compound 0.0949 µM): 86.7%
- viability, T/C (second compound 10 µM, first compound 0.3 µM): 91.2%
- viability, T/C (second compound 10 µM, first compound 0.949 µM): 90.2%
- viability, T/C (second compound 10 µM, first compound 3 µM): 86.4%

Compound: O=c1[nH]cc(F)c(=O)[nH]1 + Nc1ccc(C#CCN(C(=O)Cc2ncc(C(F)(F)F)cc2C(F)(F)F)c2ccc(F)cc2)nn1
- IC50 (second compound 0.0316 µM): > 10 µM
- IC50 (second compound 0.1 µM): > 10 µM
- IC50 (second compound 0.316 µM): > 10 µM
- IC50 (second compound 1 µM): > 10 µM
- IC50 (second compound 3.16 µM): > 10 µM
- IC50 (second compound 10 µM): > 10 µM
- viability, T/C [1]: 111%
- viability, T/C [2]: 111%
- viability, T/C [3]: 98.8%
- viability, T/C [4]: 102%
- viability, T/C [5]: 112%
- viability, T/C [6]: 106%
- viability, T/C [7]: 111%
- viability, T/C [8]: 106%
- viability, T/C [9]: 95.1%
- viability, T/C [10]: 106%
- viability, T/C [11]: 111%
- viability, T/C [12]: 100%
- viability, T/C [13]: 110%
- viability, T/C [14]: 105%
- viability, T/C [15]: 99.5%
- viability, T/C [16]: 112%
- viability, T/C [17]: 106%
- viability, T/C [18]: 90.9%
- viability, T/C [19]: 104%
- viability, T/C [20]: 98.8%
- viability, T/C [21]: 90.5%
- viability, T/C [22]: 107%
- viability, T/C [23]: 107%
- viability, T/C [24]: 99.1%
- viability, T/C [25]: 98.7%
- viability, T/C [26]: 107%
- viability, T/C [27]: 97.6%
- viability, T/C [28]: 93.2%
- viability, T/C [29]: 103%
- viability, T/C [30]: 108%
- viability, T/C [31]: 110%
- viability, T/C [32]: 103%
- viability, T/C [33]: 98%
- viability, T/C [34]: 97.5%
- viability, T/C [35]: 96.7%
- viability, T/C [36]: 101%
